Source: patent EP2908837B1, “COMPOSITIONS FOR DRUG DELIVERY” (priority 2012, dated 2014)
Non-standard residues stand in square brackets, D forms with d. Residues, ends and D or L forms follow the SMILES beside them.

test: In vitro plasma stability (half-life) in freshly collected mouse blood, LC-MS/MS; format: in vitro ADME; conditions: up to 8 hours at 37°C in Swiss (CD-I) mouse blood, analyte quantified in the plasma fraction
Method: In vitro plasma stability (i.e. half-life or t1/2) of the peptides of the invention was also assessed. Briefly, each peptide was incubated up to 8 hours at 37°C in freshly collected Swiss (CD-I) mouse blood and the analyte was quantified in the plasma fraction at several time-points using a liquid chromatography-tandem mass spectrometry (LC-MS/MS) analytical method. […]

Row | Structure (SMILES) | half-life [h]
1 | CSCC[C@@H]1NC(=O)[C@H](N)CSSC(C)(C)[C@@H](C(=O)O)NC(=O)CNC(=O)[C@H](CCCNC(=N)N)NC(=O)[C@H](CC(C)C)NC(=O)[C@H](CCCNC(=N)N)NC(=O)[C@@H]2CSCN2C1=O [SEQ ID NO: 1, (D)-Cys-Met-Thz-Arg-Leu-Arg-Gly-Pen] | 4
2 | CSCC[C@@H]1NC(=O)[C@H](N)CSSC(C)(C)[C@@H](C(=O)O)NC(=O)CN(C)C(=O)[C@H](CCCNC(=N)N)NC(=O)[C@H](CC(C)C)NC(=O)[C@H](CCCNC(=N)N)NC(=O)[C@@H]2CSCN2C1=O [SEQ ID NO: 2, (D)-Cys-Met-Thz-Arg-Leu-Arg-Sar-Pen] | 4.9
3 | CSCC[C@@H]1NC(=O)[C@H](N)CSSC[C@@H](C(=O)O)NC(=O)CN(C)C(=O)[C@H](CCCNC(=N)N)NC(=O)[C@H](CC(C)C)NC(=O)[C@H](CCCNC(=N)N)NC(=O)[C@@H]2CCCCN2C1=O [SEQ ID NO: 3, (D)-Cys-Met-Pip-Arg-Leu-Arg-Sar-Cys] | 5.9
4 | CSCC[C@@H]1NC(=O)[C@H](N)CSSC(C)(C)[C@@H](C(=O)O)NC(=O)CNC(=O)[C@H](CCCNC(=N)N)NC(=O)[C@H](CC(C)C)NC(=O)[C@H](CCCNC(=N)N)NC(=O)[C@@H]2CCCCN2C1=O [SEQ ID NO: 4, (D)-Cys-Met-Pip-Arg-Leu-Arg-Gly-Pen] | 3.9
5 | CSCC[C@@H]1NC(=O)[C@H](N)CSSC(C)(C)[C@@H](C(=O)O)NC(=O)CN(C)C(=O)[C@H](CCCNC(=N)N)NC(=O)[C@H](CC(C)C)NC(=O)[C@H](CCCNC(=N)N)NC(=O)[C@@H]2CCCCN2C1=O [SEQ ID NO: 5, (D)-Cys-Met-Pip-Arg-Leu-Arg-Sar-Pen] | 9.2

test: In situ brain perfusion, cerebral transfer coefficient (Kin); format: in vivo, mouse; conditions: in situ brain perfusion 2-5 min, perfusate flow rate 2 ml/min
Method: The in situ brain perfusion technique (in adult male OF1 mouse) is used to illustrate passage in the brain across the BBB.
Radioactive peptides with high specific radioactivity (RAS, up to 100 Ci/mmol) are prepared by a strategy of acylation of the N-term amine function by tritiated propionic (or propanoic) anhydride or tritiated N-propionyl-succinimide (NPS).
The techniques briefly summarized below were developed previously to study the distribution in the brain of active substances and, in particular, the role of the BBB and, more particularly, of LDLR in the penetration of these molecules in the brain. In situ brain perfusion techniques are among the most technically demanding and the most difficult to perform in the mouse. […]
This strategy of in situ brain perfusion normally carried out in the rat was adapted for mouse (Dagenais et al., 2000, J Cereb Blood Flow Metab., 20(2), 381-6) in order to broaden its application for evaluating the parameters of transport kinetics at the BBB and the blood-retinal barrier, and this also in transgenic and KO mutant mice for the receptors, enzymes or transporters of active substances. […] The duration of the fixed flow-rate perfusion is monitored. […]

Row | Structure (SMILES) | Kin (transfer coefficient)
6 | CC(C)C[C@H](NC(=O)[C@H](Cc1ccccc1)NC(=O)CNC(=O)[C@@H](C)NC(=O)[C@@H](N)Cc1ccc(O)cc1)C(=O)N[C@@H](CCCNC(=N)N)C(=O)O [Dalargine] (H-Y[dA]GFLR-OH) | ≈ 0.9 x 10^-4 ml/s/g
